Patent EP0696280B1, “SUBSTITUTED PYRROLIDIN-3-YL-ALKYL-PIPERIDINES USEFUL AS TACHYKININ ANTAGONISTS” (MERRELL PHARMACEUTICALS INC., priority 1993, dated 1994)
pIC50: −log10 of the molar value. Structures can show the parent of a compound that is named as a salt.

Assays:
NK-3 receptor = molecular target: T1, NK-3 receptor (Cavia porcellus, UniProt P30098); assay: Antagonism of iodinated tachykinin binding to NK-3 receptor (125I-Bolton Hunter labeled Lys-4 eledoisin, guinea pig cerebral cortex membranes)
T1 construct: freshly collected guinea pig cerebral cortex; from tissue; host or cells: guinea pig cerebral cortex membranes
T1 sequence (P30098 1-440): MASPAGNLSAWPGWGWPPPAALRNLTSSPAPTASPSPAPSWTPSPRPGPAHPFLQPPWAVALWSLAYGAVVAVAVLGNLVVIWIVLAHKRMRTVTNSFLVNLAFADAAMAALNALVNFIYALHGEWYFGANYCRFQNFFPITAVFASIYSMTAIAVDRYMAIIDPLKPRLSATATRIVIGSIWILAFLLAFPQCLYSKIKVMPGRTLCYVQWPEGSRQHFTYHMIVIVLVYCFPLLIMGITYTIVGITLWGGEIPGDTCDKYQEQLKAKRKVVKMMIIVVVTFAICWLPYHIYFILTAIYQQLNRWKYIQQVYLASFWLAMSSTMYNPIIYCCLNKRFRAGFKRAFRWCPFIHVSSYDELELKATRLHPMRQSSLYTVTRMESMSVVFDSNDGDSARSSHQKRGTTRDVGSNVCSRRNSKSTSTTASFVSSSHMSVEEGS
Procedure: The NK1 receptor affinity of proposed tachykinin antagonists was devaluated in guinea pig lungs (Keystone Biologicals, Cleveland, OH), affinity for the NK2 receptor evaluated in HSKR-1 cells (which are mouse 3T3 fibroblasts expressing the human jejunal NK2 receptor) and NK-3 receptor affinity was evaluated in freshly collected guinea pig cerebral cortex. Tissues or cells were homogenized with a Polytron in 15 volumes of 50 mM Tris-HCl buffer (pH 7.4, 4°C) and centrifuged. The pellet was resuspended in Tris-HCl buffer and was centrifuged; the pellet was washed twice by resuspension. The final pellet was resuspended at a concentration of 40 mg/ml for tissues (guinea pig lung and cerebral cortex) and 20 mg/ml for cells in incubation buffer and remained at room temperature for at least 15 min prior to use. Receptor binding was initiated by addition of 250 µl membrane preparation in duplicate to 0.1 nM of the following radioligands: ^125I-Bolton Hunter Lys-3 labeled substance P; ^125iodohistidyl-1-neurokinin A; and ^125I-Bolton Hunter labeled Lys-4 eledoisin in a final volume of 500 µl of buffer containing 50 mM Tris-HCl (pH 7.4 at room temperature), 0.1% bovine serum albumin, 2 mM MnCl2, 40 µg/ml bacitracin, 4 µg/ml leupeptin and chymostatin, 1 µM thiorphan and various doses of the putative tachykinin antagonists. Incubations were performed at room temperature for 90 min (NK1 receptor assays) or 2 hr (NK2 and NK3 receptor assays); binding was terminated by addition of 50 mM Tris-HCl buffer (pH 7.4, 4°C) and filtration under vacuum through GF/B filters presoaked with 0.1% polyethyleneimine (NK1 receptor assays) or 0.5% bovine serum albumin (NK2 and NK3 receptor assays). Filter bound radioactivity was quantitated in a gamma counter. Nonspecific binding was defined as binding in the presence of 1 µM substance P, neurokinin A, or eledoisin. Specific binding was calculated by subtracting nonspecific binding from total binding. Competition of iodinated SP, NKA, or eledoisin binding by test compounds or standards was expressed as a percentage of this maximum competition. IC50 values (concentration required to inhibit 50% of receptor binding) were generated for each of the test compounds by nonlinear regression using an iterative curve fitting program (GraphPAD Inplot, San Diego, CA).

[1] = test system: NKA-induced respiratory effects; assay: Antagonism of NKA aerosol induced respiratory effects in conscious guinea pigs (whole body plethysmography); format: in vivo, guinea pig; conditions: 20 min prior to NKA aerosol (0.05%); for DYSPNEA ONSET: mean and SEM
Procedure: In vivo experiments were performed using male Duncan Hartley guinea pigs (250-350g). Changes in conscious breathing patterns were monitored in four animals simultaneously using modified whole body plethysmography consisting of four small plexiglass boxes each connected to a reference box via Validyne DP 45-16 differential pressure transducers. The 4 boxes were equipped with an air supply line (also used for aerosol delivery) and an exhaust air line. Supply and exhaust lines were of the same length and narrow bore and arose from a common supply chamber and vented to a common exhaust chamber. This system was used to ensure that fluctuations in supply air and atmospheric pressure would remain in phase and be eliminated from the net signal by the differential pressure transducers. The analog pressure signals were digitalized via a Data Translation DT2821 A to D board. Data were collected at a rate of 100 samples/second/animal. Each cycle of pressure change was analyzed using the following parameters: rising and falling slope determined between minimum and maximum pressures, the ratio of rising over falling slope, and the magnitude of the change between initial trough pressure and peak cycle pressure. Using these values (and observing the animals) the pressure cycles were characterized into normal breaths, forced exhalations (apparent by abdominal heaving), significant respiratory events (SREs; usually coughs, less often sneezes or gasps which were characterized by transient, extremely large pressure increases which were distinguishable from noise) and movement/noise with a PCAT 286 running a System V UNIX operating system. Dyspnea was defined as a significant, sustained increase in plethysmograph pressure which was associated with an observable shift to labored breathing in the animal.
During the course of a typical experiment in which airway responsiveness to various bronchoconstricting agents was examined, aerosols were delivered for 19 min (0.33 ml/min) using a DeVilbiss Ultraneb 99 ultrasonic nebulizer and animals monitored during this time. Prior to nebulization, 1 min of resting breathing was collected to establish a baseline pressure. […] The vehicle for nebulization of all bronchoconstrictive agents was phosphate buffered saline (pH 7.4) which elicited no respiratory effects itself. Putative tachykinin antagonists were administered either (i.v.) 20 min prior to onset of aerosol exposure or orally 1 hour prior to onset (to guinea pigs after an overnight fast).
Table 6 illustrates the effects of the compounds of Example 3; Example 20A; and Example 5A on respiratory effects induced by NKA aerosol. […] These effects were dose dependent i.e. the higher the dose of compound, the greater attenuation of NKA-mediated effects. […]
Compounds were administered 20 min prior to initiation of NKA aerosol (0.05%). Values for each treatment represent the mean and SEM of data from 5-37 animals per dose.

[2] = test system: SP-induced plasma protein extravasation; assay: Antagonism of SP-induced plasma protein extravasation in guinea pig trachea (Evans Blue dye); format: in vivo; conditions: Figure 2; i.v.; result in words
Procedure: SP-induced protein leakage through postcapillary venules was assessed by measuring Evans Blue dye accumulation in guinea pig trachea. Animals were anesthetized with pentobarbital then injected with Evans Blue dye (20 mg/kg, i.v., prepared in 0.9% NaCl solution). One minute after dye administration, the antagonist was administered (i.v.) followed by SP (0.3 nmole/kg, i.v.) and, after 5 min, excess dye removed from the circulation by transcardiac perfusion with 50 ml 0.9% NaCl solution. The trachea and primary bronchi were removed, blotted dry and weighed. Dye quantitation was performed spectrophotometrically (620 nm) after extracting tissues in formamide for 24 hr at 50°C. Values were subtracted from background (dye only, no agonist). ED50 (dose of compound which inhibits SP-induced plasma protein extravasation by 50%) was calculated from linear regression analysis.
Values are mean (95% confidence limits). Compounds were injected intravenously 2 min prior to SP administration. ED50 values are based on at least 3 doses; at least 4 animals were used per dose.

| SMILES | pIC50 (NK-3 receptor) | DYSPNEA INCIDENCE ([1]; 5 mg/kg) | DYSPNEA ONSET ([1]; 5 mg/kg) [s] | DYSPNEA INCIDENCE ([1]; 10 mg/kg) | DYSPNEA ONSET ([1]; 10 mg/kg) [s] | antagonism of SP-induced plasma protein extravasation in guinea pig trachea [2] | affinity for NK3 receptors (NK-3 receptor; result in words) |
| --- | --- | --- | --- | --- | --- | --- | --- |
| COc1cc(C(=O)N2CCC(CCN3CCC(C(N)=O)(c4ccccc4)CC3)(c3ccc(Cl)c(Cl)c3)C2)cc(OC)c1OC (racemic) [Example 3A, 1-[2-[3-(3,4-dichloro-phenyl-3-yl)-1-(3,4,5-trimethoxy-benzoyl)-pyrrolidin-3-yl]-ethyl] -4-phenyl-piperidine-4-carboxylic acid amide hydrochloride] | 7.27 |  |  |  |  |  |  |
| COc1cccc(OC)c1C(=O)N1CCC(CCN2CCC(C(N)=O)(c3ccccc3)CC2)(c2ccc(Cl)c(Cl)c2)C1 (racemic) [Example 5A, 1-[2-[3-(3,4-dichloro-phenyl-3-yl)-1-(2,6-dimethoxy-benzoyl)-pyrrolidin-3-yl]-ethyl]-4-phenyl-piperidine-4-carboxylic acid amide hydrochloride] |  | 60% (3/5) | 654 ± 37 | 54% (7/13) | 608 ± 65 |  |  |
| COc1cc(C(=O)N2CCC(CCN3CCC(C(N)=O)(c4ccccc4)CC3)(c3ccc(Cl)c(Cl)c3)C2)cc(OC)c1OC (centres unmarked) [Example 3, 1-[2-[3-(3,4-dichloro-phenyl)-1-(3,4,5-trimethoxy-benzoyl)-pyrrolidin-3-yl]-ethyl]-4-phenyl-piperidine-4-carboxylic acid amide] |  | 86% (6/7) | 394 ± 32 | 60% (6/10) | 801 ± 104 | dose related antagonism | high affinity |
